From patent US10131675B2 (Genentech, Inc., priority 2015, dated 2018) come the findings set out here.

By Ki is commonly meant a measure of affinity in units of concentration, obtained from inhibition or displacement.

Molecules are shown by their SMILES.

Sequence of DLK (Q12852 1-520): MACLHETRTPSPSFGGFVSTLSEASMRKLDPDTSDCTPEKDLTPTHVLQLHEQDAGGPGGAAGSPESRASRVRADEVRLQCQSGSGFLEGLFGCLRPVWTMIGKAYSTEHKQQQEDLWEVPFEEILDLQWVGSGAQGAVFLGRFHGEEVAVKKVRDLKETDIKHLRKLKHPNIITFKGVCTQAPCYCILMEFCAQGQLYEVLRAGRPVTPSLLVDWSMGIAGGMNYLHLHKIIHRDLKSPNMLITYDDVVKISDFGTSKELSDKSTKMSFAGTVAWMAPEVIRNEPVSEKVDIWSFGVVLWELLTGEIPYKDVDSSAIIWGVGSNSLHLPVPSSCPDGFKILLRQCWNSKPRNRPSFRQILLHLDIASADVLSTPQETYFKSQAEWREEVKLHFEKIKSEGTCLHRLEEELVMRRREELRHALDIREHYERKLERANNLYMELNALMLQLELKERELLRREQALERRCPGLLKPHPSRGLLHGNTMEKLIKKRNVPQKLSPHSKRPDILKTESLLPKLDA

The test addresses DLK (Homo sapiens (Human), UniProt Q12852). The test is described as follows: DLK TR-FRET Inhibition Assay. It counts as biochemical. Particulars: N-terminally GST-tagged DLK (catalytic domain amino acid 1-520), MKK4 K131M substrate, 30 μM ATP; read-out: DLK HTRF Ki. Here is the method: DLK kinase reactions (20 μL) containing 5 nM N-terminally GST-tagged DLK (catalytic domain amino acid 1-520) (Carna Bioscience), 40 nM N-terminally HIS tagged MKK4 K131M substrate, and 30 μM ATP in kinase reaction buffer (50 mM HEPES, pH 7.5, 0.01% Triton X-100, 0.01% Bovine γ-Globulins, 2 mM DTT, 10 mM MgCl2 and 1 mM EGTA), and testing compound 1:3 serial diluted starting at 20 uM were incubated at ambient temperature for 60 minutes in 384 well OptiPlate (Perkin Elmer). To quench kinase reactions and detect phosphorylated MKK4, 15 μL of TR-FRET antibody mixture containing 2 nM anti-phosphorylated MKK4 labeled with Europium cryptate (Cisbio) and 23 nM anti-HIS labeled with D2 (Cisbio) in detection buffer (25 mM Tris pH 7.5, 100 mM NaCl, 100 mM EDTA, 0.01% Tween-20, and 200 mM KF) was added to the reaction mixture. The detection mixture was incubated for 3 hours at ambient temperature and the TR-FRET was detected with an EnVision multilabel plate reader (Perkin-Elmer) using the LANCE/DELFIA Dual Enh label from Perkin-Elmer (excitation filter: UV2 (TRF) 320 and emission filters: APC 665 and Europium 615).
In general terms: Time-resolved FRET reads energy transfer from a long-lived donor to a nearby acceptor.
As to `CC1(C)OCCn2c1nc1c(N3CC4CC3C4)nc(-c3cnc4[nH]ccc4c3)nc12` [Example 23, 1-(2-Aza-bicyclo[2.1.1]hex-2-yl)-8,8-dimethyl-3-(1H-pyrrolo[2,3-b]pyridin-5-yl)-5,6-dihydro-8H-7-oxa-2,4,4b,9-tetraaza-fluorene], the Ki came to 57.7 nM.

Regarding `CCC1CCCN1c1nc(-c2cnc(N)nc2)nc2c1nc1n2CCOC1(C)C` (centres unmarked) [Example 24, 5-[1-(2-Ethyl-pyrrolidin-1-yl)-8,8-dimethyl-5,6-dihydro-8H-7-oxa-2,4,4b,9-tetraaza-fluoren-3-yl]-pyrimidin-2-ylamine], the Ki was found to be 294 nM.

For the compound `C[C@@H]1CCCN1c1nc(-c2cnc(N)nc2)nc2c1nc1n2CCOC1(C)C` [Example 26, 5-[8,8-Dimethyl-1-((R)-2-methyl-pyrrolidin-1-yl)-5,6-dihydro-8H-7-oxa-2,4,4b,9-tetraaza-fluoren-3-yl]-pyrimidin-2-ylamine], the Ki is 210 nM.

With `CC1CCN(c2nc(-c3cnc(N)nc3)nc3c2nc2n3CCOC2(C)C)C1` (centres unmarked) [Example 27, 5-[8,8-Dimethyl-1-(3-methyl-pyrrolidin-1-yl)-5,6-dihydro-8H-7-oxa-2,4,4b,9-tetraaza-fluoren-3-yl]-pyrimidin-2-ylamine], the Ki amounted to 299 nM.

For the compound `CC1(C)OCCn2c1nc1c(N3CCC(C(F)(F)F)C3)nc(-c3cnc(N)nc3)nc12` (centres unmarked) [Example 28, 5-[8,8-Dimethyl-1-(3-trifluoromethyl-pyrrolidin-1-yl)-5,6-dihydro-8H-7-oxa-2,4,4b,9-tetraaza-fluoren-3-yl]-pyrimidin-2-ylamine], the Ki came to 245 nM.

As to `CC1(C)OCCn2c1nc1c(N3C[C@@H](F)[C@@H](F)C3)nc(-c3cnc(N)nc3)nc12` [Example 29, 5-[1-(cis-3,4-Difluoro-pyrrolidin-1-yl)-8,8-dimethyl-5,6-dihydro-8H-7-oxa-2,4,4b,9-tetraaza-fluoren-3-yl]-pyrimidin-2-ylamine], the Ki is 297 nM.

For the compound `Cc1c[nH]c2ncc(-c3nc(N4CCC5(COC5)C4)c4nc5n(c4n3)CCOC5(C)C)cc12` [Example 30, 8,8-Dimethyl-3-(3-methyl-1H-pyrrolo[2,3-b]pyridin-5-yl)-1-(2-oxa-6-aza-spiro[3.4]oct-6-yl)-5,6-dihydro-8H-7-oxa-2,4,4b,9-tetraaza-fluorene], the Ki came to 10.2 nM.

Take `CC1(C)CN(c2nc(-c3cnc(N)nc3)nc3c2nc2n3CCOC2(C)C)C1` [Example 31, 5-[1-(3,3-Dimethyl-azetidin-1-yl)-8,8-dimethyl-5,6-dihydro-8H-7-oxa-2,4,4b,9-tetraaza-fluoren-3-yl]-pyrimidin-2-ylamine]: the Ki was determined as 424 nM.

With `Cc1c[nH]c2ncc(-c3nc(N4CC(O)C4)c4nc5n(c4n3)CCOC5(C)C)cc12` [Example 32, 1-[8,8-Dimethyl-3-(3-methyl-1H-pyrrolo[2,3-b]pyridin-5-yl)-5,6-dihydro-8H-7-oxa-2,4,4b,9-tetraaza-fluoren-1-yl]-azetidin-3-ol], the Ki was determined as 13.1 nM.

With `CC1(C)OCCn2c1nc1c(N3CC4CCC3C4)nc(-c3cnc(N)nc3)nc12` (centres unmarked) [Example 33, 5-[1-(2-Aza-bicyclo[2.2.1]hept-2-yl)-8,8-dimethyl-5,6-dihydro-8H-7-oxa-2,4,4b,9-tetraaza-fluoren-3-yl]-pyrimidin-2-ylamine], the Ki was found to be 90.3 nM.

On to `Cc1c[nH]c2ncc(-c3nc(N4CC5CCC4C5)c4nc5n(c4n3)CCOC5(C)C)cc12` (centres unmarked) [Example 34, 1-(2-Aza-bicyclo[2.2.1]hept-2-yl)-8,8-dimethyl-3-(3-methyl-1H-pyrrolo[2,3-b]pyridin-5-yl)-5,6-dihydro-8H-7-oxa-2,4,4b,9-tetraaza-fluorene], for which the Ki amounted to 31.8 nM.

On to `CC1(C)OCCn2c1nc1c(N3CC4CC3C4)nc(-c3cnc(N)c(Cl)c3)nc12` [Example 35, 5-[1-(2-Aza-bicyclo[2.1.1]hex-2-yl)-8,8-dimethyl-5,6-dihydro-8H-7-oxa-2,4,4b,9-tetraaza-fluoren-3-yl]-3-chloro-pyridin-2-ylamine], for which the Ki is 235 nM.

Regarding `CC1(C)OCCn2c1nc1c(N3CC4CC3C4)nc(-c3cnc(N)c(F)c3)nc12` [Example 36, 5-[1-(2-Aza-bicyclo[2.1.1]hex-2-yl)-8,8-dimethyl-5,6-dihydro-8H-7-oxa-2,4,4b,9-tetraaza-fluoren-3-yl]-3-fluoro-pyridin-2-ylamine], the Ki amounted to 444 nM.

Take `CC1(C)OCCn2c1nc1c(N3CC4CCC3C4)nc(-c3cnc4ccnn4c3)nc12` (centres unmarked) [Example 37, 1-(2-Aza-bicyclo[2.2.1]hept-2-yl)-8,8-dimethyl-3-pyrazolo[1,5-a]pyrimidin-6-yl-5,6-dihydro-8H-7-oxa-2,4,4b,9-tetraaza-fluorene]: the Ki stood at 663 nM.

On to `CC1(C)OCCn2c1nc1c(N3CC4CC3C4)nc(-c3cnc4ccnn4c3)nc12` [Example 38, 1-(2-Aza-bicyclo[2.1.1]hex-2-yl)-8,8-dimethyl-3-pyrazolo[1,5-a]pyrimidin-6-yl-5,6-dihydro-8H-7-oxa-2,4,4b,9-tetraaza-fluorene], for which the Ki was 280 nM.

As for `CC1(C)OCCn2c1nc1c(N3CC(O)C3)nc(-c3cnc4[nH]cc(C(F)(F)F)c4c3)nc12` [Example 39, 1-[8,8-Dimethyl-3-(3-trifluoromethyl-1H-pyrrolo[2,3-b]pyridin-5-yl)-5,6-dihydro-8H-7-oxa-2,4,4b,9-tetraaza-fluoren-1-yl]-azetidin-3-ol], the Ki was 6.79 nM.

With `CC1(C)OCCn2c1nc1c(N3CC(O)C3)nc(-c3cnc4[nH]cc(Cl)c4c3)nc12` [Example 40, 1-[3-(3-Chloro-1H-pyrrolo[2,3-b]pyridin-5-yl)-8,8-dimethyl-5,6-dihydro-8H-7-oxa-2,4,4b,9-tetraaza-fluoren-1-yl]-azetidin-3-ol], the Ki stood at 5.91 nM.

For the compound `COC1CN(c2nc(-c3cnc4[nH]cc(C#N)c4c3)nc3c2nc2n3CCOC2(C)C)C1` [Example 41, 5-[1-(3-Methoxy-azetidin-1-yl)-8,8-dimethyl-5,6-dihydro-8H-7-oxa-2,4,4b,9-tetraaza-fluoren-3-yl]-1H-pyrrolo[2,3-b]pyridin-3-carbonitrile], the Ki was found to be 30.8 nM.

In the case of `CC1(C)OCCn2c1nc1c(N3CCC4(COC4)C3)nc(-c3cnc4[nH]cc(C#N)c4c3)nc12` [Example 42, 5-[8,8-Dimethyl-1-(2-oxa-6-aza-spiro[3.4]oct-6-yl)-5,6-dihydro-8H-7-oxa-2,4,4b,9-tetraaza-fluoren-3-yl]-1H-pyrrolo[2,3-b]pyridin-3-carbonitrile], the inhibition constant Ki was found to be 4.97 nM.

On to `CC1(C)OCCn2c1nc1c(N3CC4CC3C4)nc(-c3cnc(N)c(OC(F)F)c3)nc12` [Example 43, 5-[1-(2-Aza-bicyclo[2.1.1]hex-2-yl)-8,8-dimethyl-5,6-dihydro-8H-7-oxa-2,4,4b,9-tetraaza-fluoren-3-yl]-3-difluoromethoxy-pyridin-2-ylamine], for which the Ki was 41.8 nM.

Regarding `CC1(C)OCCn2c1nc1c(N3CC4CC3C4)nc(-c3cnc(N)c(C4CC4)c3)nc12` [Example 44, 5-[1-(2-Aza-bicyclo[2.1.1]hex-2-yl)-8,8-dimethyl-5,6-dihydro-8H-7-oxa-2,4,4b,9-tetraaza-fluoren-3-yl]-3-cyclopropyl-pyridin-2-ylamine], the Ki worked out at 621 nM.

Turning to `CC1(C)OCCn2c1nc1c(N3CC(F)C3)nc(-c3cnc4[nH]cc(C(F)(F)F)c4c3)nc12` [Example 45], the Ki was found to be 9.87 nM.

Consider `CC1(C)OCCn2c1nc1c(N3CC4CC3C4)nc(-c3cnc(N)nc3)nc12` [Example 46, 5-[1-(2-Aza-bicyclo[2.1.1]hex-2-yl)-8,8-dimethyl-5,6-dihydro-8H-7-oxa-2,4,4b,9-tetraaza-fluoren-3-yl]-pyrimidin-2-ylamine], for which the Ki was 130 nM.

For `CNc1ncc(-c2nc(N3CC4CC3C4)c3nc4n(c3n2)CCOC4(C)C)cn1` [Example 47], the Ki worked out at 1300 nM.

Regarding `Cc1cc(-c2nc(N3CC4CC3C4)c3nc4n(c3n2)CCOC4(C)C)cnc1N` [Example 48, 5-(4-(2-azabicyclo[2.1.1]hexan-2-yl)-6,6-dimethyl-8,9-dihydro-6H-[1,4]oxazino[4,3-e]purin-2-yl)-3-methylpyridin-2-amine], the Ki was determined as 992 nM.

`CC1(C)OCCn2c1nc1c(N3CCC4(COC4)C3)nc(-c3cnc(N)c(C(F)(F)F)c3)nc12` [Example 49, 5-[8,8-Dimethyl-1-(2-oxa-6-aza-spiro[3.4]oct-6-yl)-5,6-dihydro-8H-7-oxa-2,4,4b,9-tetraaza-fluoren-3-yl]-3-trifluoromethyl-pyridin-2-ylamine]: the Ki was found to be 270 nM.

As to `CC1(C)OCCn2c1nc1c(N3CC4(COC4)C3)nc(-c3cnc(N)nc3)nc12` [Example 50, 5-[8,8-Dimethyl-1-(2-oxa-6-aza-spiro[3.3]hept-6-yl)-5,6-dihydro-8H-7-oxa-2,4,4b,9-tetraaza-fluoren-3-yl]-pyrimidin-2-ylamine], the Ki came to 490 nM.

Regarding `CC1(C)OCCn2c1nc1c(N3CC4(CCCO4)C3)nc(-c3cnc(N)nc3)nc12` [Example 51, 5-[8,8-Dimethyl-1-(5-oxa-2-aza-spiro[3.4]oct-2-yl)-5,6-dihydro-8H-7-oxa-2,4,4b,9-tetraaza-fluoren-3-yl]-pyrimidin-2-ylamine], the Ki stood at 907 nM.

For the compound `CC1(C)OCCn2c1nc1c(N3CC4(CCC4)C3)nc(-c3cnc(N)nc3)nc12` [Example 52, 5-[1-(2-Aza-spiro[3.3]hept-2-yl)-8,8-dimethyl-5,6-dihydro-8H-7-oxa-2,4,4b,9-tetraaza-fluoren-3-yl]-pyrimidin-2-ylamine], the Ki stood at 515 nM.
